Reference: patent US5807868A, “Isoquinoline derivatives as therapeutic agents” (Knoll Aktiengesellschaft, priority 1993, dated 1998)
Structures can show the parent of a compound that is named as a salt.

Assays:
D1 dopamine receptors = D1 dopamine receptors (Rattus norvegicus, UniProt P18901); assay: Inhibition of tritiated SCH 23390 binding to D1 dopamine receptors, rat striatal samples; parameters: species or system rat (male Charles River CD rats); settings: for Ki: rat striatum, tritiated SCH 23390, pH 7.4, 37° C., 30 minutes; for Ki for D2 / Ki for D1: ratio between the D2 and D1 Ki values, to two significant figures
Chain of D1 dopamine receptors (P18901 whole entry): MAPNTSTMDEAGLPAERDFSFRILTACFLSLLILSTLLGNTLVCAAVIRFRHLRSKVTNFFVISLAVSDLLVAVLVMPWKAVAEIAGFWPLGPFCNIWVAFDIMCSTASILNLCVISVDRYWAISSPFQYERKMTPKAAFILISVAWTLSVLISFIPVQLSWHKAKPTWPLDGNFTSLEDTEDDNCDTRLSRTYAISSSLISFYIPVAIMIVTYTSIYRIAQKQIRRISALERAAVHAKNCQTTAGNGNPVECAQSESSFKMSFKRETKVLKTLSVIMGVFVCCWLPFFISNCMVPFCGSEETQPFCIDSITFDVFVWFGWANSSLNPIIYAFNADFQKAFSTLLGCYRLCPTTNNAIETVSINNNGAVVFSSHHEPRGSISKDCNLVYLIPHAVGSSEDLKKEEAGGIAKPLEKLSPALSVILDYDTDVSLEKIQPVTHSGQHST
Procedure: (§1) Striatal samples from the brains of male Charles River CD rats weighing between 140-250 g were homogenised in ice-cold 50 mM Tris-HCl buffer (pH 7.4 when measured at 25° C. for D1 binding assays and pH 7.7 when measured at 25° C. for D2 binding assays) and centrifuged for 10 minutes (at 21,000 g when used for D1 binding assay and 40,000 g when used for D2 binding assays). The pellet was resuspended in the same buffer, again centrifuged and the final pellet stored at -80° C. Before each test the pellet was resuspended in 50 mM Tris-HCl buffer containing 120 mM NaCl, 5 mM KCl, 2 mM CaCl2 and 1 mM MgCl2 at pH 7.4 for the D1 binding assays and at pH 7.7 with the addition of 6 mM ascorbic acid for the D2 binding assays. Aliquots of this suspension were then added to tubes containing the ligand and either the compound under test or buffer. For the D1 binding assays the ligand was tritiated SCH 23390 and the mixture was incubated at 37° C. for 30 minutes before the incubation was terminated by rapid filtration. For the D2 binding assays the ligand was tritiated (S)-sulpiride and the mixture was incubated at 4° C. for 40 minutes before the incubation was terminated by rapid filtration. Non-specific binding was determined experimentally by the addition of saturating concentrations of chloropromazine or spiroperidol for D1 and D2 receptors respectively.
(§2) The filters were washed with ice-cold Tris-HCl buffer and dried. The filters were punched out into vials containing scintillation fluid and were left for about 20 hours before being counted by scintillation spectrophotometry. Competition binding curves were produced over a range of concentrations of the compound under test and the inhibition coefficient Ki was derived from the data by use of the non-linear curve fitting computer programe EBDA (Biosoft).

D2 dopamine receptors = D2 dopamine receptors (Rattus norvegicus, UniProt P61169); assay: Inhibition of tritiated (S)-sulpiride binding to D2 dopamine receptors, rat striatal samples; parameters: species or system rat (male Charles River CD rats); settings: rat striatum, pH 7.7, 4° C., 40 minutes
Chain of D2 dopamine receptors (P61169 whole entry): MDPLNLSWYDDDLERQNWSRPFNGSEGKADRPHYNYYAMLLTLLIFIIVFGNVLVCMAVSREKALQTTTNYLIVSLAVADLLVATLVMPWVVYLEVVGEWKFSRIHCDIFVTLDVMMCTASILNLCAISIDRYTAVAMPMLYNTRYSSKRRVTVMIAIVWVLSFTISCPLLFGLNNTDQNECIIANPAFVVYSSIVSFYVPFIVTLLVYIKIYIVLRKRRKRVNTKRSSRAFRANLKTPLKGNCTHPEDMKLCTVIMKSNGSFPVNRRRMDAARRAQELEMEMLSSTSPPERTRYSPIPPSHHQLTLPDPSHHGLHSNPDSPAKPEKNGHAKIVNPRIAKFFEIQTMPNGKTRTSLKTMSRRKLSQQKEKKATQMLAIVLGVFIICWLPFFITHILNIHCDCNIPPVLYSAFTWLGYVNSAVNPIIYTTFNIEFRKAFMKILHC
Procedure: as §1, §2

Ki (D1 dopamine receptors) [µM] | Ki for D2 / Ki for D1 (D1 dopamine receptors) | Ki (D2 dopamine receptors) [µM] | SMILES
0.37 | 68 | 25 | Br.CC(C)CC1(C2c3cc(O)ccc3CCN2C)CCC1 (stereo not drawn) [Example 1, 7-hydroxy-2-methyl-1-[1-(2-methylpropyl)cyclobutyl]-1,2,3,4-tetrahydroisoquinoline hydrobromide]
0.0079 | 290 | 2.3 | Cc1cc2c(cc1O)C(C1(CC3CCCC3)CC1)N(C)CC2 (stereo not drawn) [Example 2, 1-[1-(cyclopentylmethyl)cyclopropyl]-7-hydroxy-2,6-dimethyl-1,2,3,4-tetrahydroisoquinoline]
0.0067 | 28 | 0.19 | Cc1cc2c(cc1O)C(C1(C3CCCc4ccccc43)CC1)N(C)CC2 (stereo not drawn) [Example 4, 7-hydroxy-2,6-dimethyl-1-[1-(1,2,3,4-tetrahydronaphth-1-yl)cyclopropyl]-1,2,3,4-tetrahydroisoquinoline 1.05 hydrochloride 0.7 hydrate]
0.032 | 94 | 3 | Br.Cc1cc2c(cc1O)C(C1(c3cccs3)CC1)N(C)CC2 (stereo not drawn) [Example 5, 7-hydroxy-2,6-dimethyl-1-[1-(2-thienyl)cyclopropyl]-1,2,3,4-tetrahydroisoquinoline hydrobromide]
0.04 | 220 | 8.9 | Cc1cc2c(cc1O)C(C1(c3ccco3)CC1)N(C)CC2.O=C(O)/C=C\C(=O)O (stereo not drawn) [Example 9, 1-[1-(2-furyl)cyclopropyl]-7-hydroxy-2,6-dimethyl-1,2,3,4-tetrahydroisoquinoline maleate]
0.14 | 79 | 1.1 | Cc1cc2c(cc1O)C(C1(c3ccccn3)CC1)N(C)CC2 (stereo not drawn) [Example 11, 7-hydroxy-2,6-dimethyl-1-[1-(2-pyridyl)cyclopropyl]-1,2,3,4-tetrahydroisoquinoline]

SMILES | Ki (D1 dopamine receptors) [µM] | Ki for D2 / Ki for D1 (D1 dopamine receptors) | Ki (D2 dopamine receptors) [µM]
Br.Cc1cc2c(cc1O)C(C1(c3ccsc3)CC1)N(C)CC2 (racemic) [Example 8, (±)-7-hydroxy-2,6-dimethyl-1-[1-(3-thienyl)cyclopropyl]-1,2,3,4-tetrahydroisoquinoline hydrobromide] | 0.0059 | 220 | 1.3
Cc1cc2c(cc1O)C(C1(c3ccsc3)CC1)N(C)CC2.O=C(O)C(=O)O (single isomer, unassigned; (-)) [Example 6, (-)-7-hydroxy-2,6-dimethyl-1-[1-(3-thienyl)cyclopropyl]-1,2,3,4-tetrahydroisoquinoline oxalate] | 0.0021 | 2300 | 4.9
Cc1cc2c(cc1O)C(C1(c3ccsc3)CC1)N(C)CC2 (single isomer, unassigned; (-)) [Example 7, (-)-7-hydroxy-2,6-dimethyl-1-[1-(3-thienyl)cyclopropyl]-1,2,3,4-tetrahydroisoquinoline hydrochloride 0.8 hydrate] | 0.0042 | 2000 | 8.5
Cc1cc2c(cc1O)C(C1(C3C=CCCC3)CCC1)N(C)CC2.O=C(O)C(=O)O (stereo not drawn) [Example 3, 1-[1-(cyclohex-1-en-3-yl)cyclobutyl]-7-hydroxy-2,6-dimethyl-1,2,3,4-tetrahydroisoquinoline oxalate] | 0.077 | 120 | 9.5
CN1CCc2ccc(O)cc2C1C1(c2ccccn2)CCC1.O=C(O)C(=O)O (stereo not drawn) [Example 10, 7-hydroxy-2-methyl-1-[1-(2-pyridyl)cyclobutyl]-1,2,3,4-tetrahydroisoquinoline oxalate] | 0.16 | 44 | 7
